From patent US7189742B2, “Piperidin-2,6-dione bisulphate salts and their use for the treatment of stress related affective disorders” (Prestwick Pharmaceuticals, Inc., priority 2001, dated 2007)
Counter-ions that a name gives are not always drawn. Like-named read-outs stand apart in the source and are kept apart here. Each block holds one compound with its values, some of them ahead of it.

What was measured:
Male Wistar rats [1] = settings: earlier studies, cited from earlier work
Male Wistar rats [2] = assay: Chronic mild stress (CMS) model, consumption of 1% sucrose solution; format: in vivo, rat; settings: for consumption of sucrose solution one week after withdrawal from treatment: all drug-treated groups, control and stressed, stress continued; for consumption of sucrose solution in control animals / sucrose intake in stressed animals (treatment effect): 5 weeks
Protocol: (§1) Male Wistar rats were brought into the laboratory 2 months before the start of the experiment, at which time they weighed approx. 300 g. Except as described below, all animals were singly housed, with food and water freely available, and maintained on a 12-hour light/dark. The animals were first trained to consume a 1% sucrose solution. Training consisted of nine 1-hour baseline tests in which sucrose was presented in pre-weighed bottles, in the home cage, and, following 14 hours food and water deprivation; the sucrose intake was measured by weighing the pre-weighed bottles at the end of the test. Subsequently, sucrose consumption was monitored, under similar conditions, at weekly intervals throughout the whole experiment.
(§2) On the basis of their sucrose intakes in the final baseline test, the animals were divided into two matched groups. One group of animals was subjected to a chronic mild stress (“CMS”) procedure for a period of 9 consecutive weeks. Each week of stress regime consisted of: two periods of food or water deprivation, two periods of 45 degree cage tilt, two periods of intermittent illumination (lights on and off every 2 hours), two periods of soiled cage (250 ml water in sawdust bedding), two periods of paired housing, two periods of low intensity stroboscopic illumination, and two periods of no stress. All stressors were of 10–14 hours duration and were applied individually and continuously, day and night. Control animals were housed in a separate room and had no contact with the stressed animals. They were deprived of food and water for the 14 hours preceding each sucrose test, but otherwise food and water were freely available in the home cage. […] After five weeks, all treatments were terminated and after one week of withdrawal a final sucrose test was carried out. Stress was continued throughout the period of treatment and withdrawal.
Chronic mild stress causes a gradual decrease in the consumption of 1% sucrose solution. In the final baseline test, all animals drank approximately 12 g of sucrose solution. Following initial three weeks of stress, intakes remained at the same level in control animals but fell to 7.5 (±0.3) g in stressed animals. Such a difference between control and stressed animals treated with vehicle, persisted at similar level for the remainder of the experiment [Group effect: F(1,98)=67.256; P<0.001].

[3] = Body weights, behaviour and withdrawal signs in the CMS study; format: in vivo, rat; settings: for effect of chronic treatment on body weights: 5 weeks, imipramine 10 mg/kg i.p., AGN 2979 bisulphate 1, 4, 16 mg/kg p.o.; for signs of withdrawal after cessation of treatment: stressed or control animals, one week after cessation
Protocol: as §1, §2

subject = assay: Single subject with obstructive sleep apnoea, oral maintenance treatment; format: in vivo, human
Protocol: A subject, height 178 cm and weighing 90 kilograms having had persistent awakening episodes of obstructive sleep apnoea (manifested by nocturnal choking) had been treated for several years with AGN 2979 hydrochloride, initially at a daily oral dose level of 120 mg and subsequently at a single oral maintenance dose of 120 mg every 4 days. […] The patient also reports that previous regular bouts of seasickness have been not recurred since treatment with AGN 2979 bisulphate.

[4] = Effect of AGN 2979 bisulphate on rat weight (0.36% in diet); format: in vivo, Male Spraque-Dawley rats; settings: after initial period of 3 or 4 days, about 230 mg/kg
Protocol: 4 Male Spraque-Dawley rats were fed with their standard laboratory diet to which had been added 0.36% AGN 2979 bisulphate for a period of 9 days and their weight monitored on a daily basis and compared with 2 control rats receiving the standard laboratory diet without the bisulphate. For a rat weighing 360 g and consuming 23 g of the diet, the amount of AGN 2979 bisulphate consumed was about 230 mg/kg. The results are shown in Table 1 below, in which the bisulphate is identified as “AGN 2979 BS”. […] In particular, the test rats lost or merely maintained their body weight. The weight gains after an initial 3 day period for the two control rats and for test rats 3 and 6 are shown graphically in FIG. 1 and the weight gains for all 6 rats after an initial 4 day period are shown in FIG. 2.

tryptophan hydroxylase = settings: no method or data given; cited from earlier work
human patients = settings: cited from earlier work; for treatment of anxiety and depression: about 4 mg/kg/day (200–400 mg/day for human patients)
[5] = cited from earlier work
[6] = stressed animals, imipramine 10 mg/kg i.p. daily
[7] = single oral maintenance dose of 65 mg every two days, one subject
[8] = stressed animals, 4 mg/kg p.o. daily

SMILES: CN(C)CCCN1c2ccccc2CCc2ccccc21 [imipramine]
effects in CMS model at higher dose (magnitude and time-course) (Male Wistar rats [1]; imipramine 20 mg/kg per day): caused similar effects
consumption of sucrose solution one week after withdrawal from treatment (Male Wistar rats [2]): comparable to that observed in Week 5 of treatment
consumption of sucrose solution in control animals (Male Wistar rats [2]; imipramine 10 mg/kg i.p. daily): not changed
onset of significant increase of sucrose intake (Male Wistar rats [2]; [6]): after three weeks of treatment
sucrose intake after five weeks of treatment versus vehicle-treated control animals (Male Wistar rats [2]; [6]): no significant differences between drug-treated stressed and vehicle-treated control animals
sucrose intake in stressed animals (treatment effect) (Male Wistar rats [2]; [6]): gradual increase of sucrose intake
effect of chronic treatment on body weights ([3]; control and stressed animals): no significant effect on body weights
signs of withdrawal after cessation of treatment [3]: no signs of withdrawal were observed

SMILES: CN(C)CCC=C1c2ccccc2CCc2ccccc21 [amitriptyline]
efficacy against CMS-induced anhedonia when doses increased above threshold active ones (Male Wistar rats [1]): not more effective

weight gain of test rats versus control rats [4]: the same as that of the control rats
SMILES: COc1cccc(C2(CCCN(C)C)C(=O)NC(=O)CC2(C)C)c1 (stereo not shown) [AGN 2979 bisulphate, 3(3-methoxyphenyl)-3-(3-dimethylaminopropyl)-4,4-dimethyl-piperidine-2,6-dione bisulphate]
nocturnal choking after suspension of administration (subject; administration suspended, one subject): returned after three weeks
bouts of seasickness (subject; patient report, since treatment): not recurred
awakening episodes of obstructive sleep apnoea (subject; [7]): continued absence of awakening episodes
side effects (subject; [7]): no side effects
activation of tryptophan hydroxylase by metabolic inhibitors (guanidine, sodium cyanide) (tryptophan hydroxylase): blocked
consumption of sucrose solution one week after withdrawal from treatment (Male Wistar rats [2]): comparable to that observed in Week 5 of treatment
consumption of sucrose solution in control animals (Male Wistar rats [2]; any of three doses 1, 4 and 16 mg/kg p.o. daily): not changed
activity against stress-induced deficit in sucrose consumption (Male Wistar rats [2]; stressed animals, 1 mg/kg p.o. daily): ineffective
activity against stress-induced deficit in sucrose consumption (Male Wistar rats [2]; [8]): active
onset of significant increase of sucrose intake (Male Wistar rats [2]; [8]): within the first week of treatment
sucrose solution drunk at end of treatment (Week 5) versus vehicle-treated controls (Male Wistar rats [2]; [8]): comparable to that of vehicle-treated controls
activity against stress-induced deficit in sucrose consumption (Male Wistar rats [2]; stressed animals, 16 mg/kg p.o. daily): ineffective
sucrose intake in stressed animals (treatment effect) (Male Wistar rats [2]; stressed animals, 1, 4 and 16 mg/kg p.o. daily, overall): gradual increase of sucrose intake
behavioural impairments ([3]; 16 mg/kg p.o., control and stressed animals, disappeared at end of third week): sedation, hypoactivity (but not catalepsy) and hyporeactivity to handling and drug injections
effect of chronic treatment on body weights ([3]; control and stressed animals): no significant effect on body weights
signs of withdrawal after cessation of treatment [3]: no signs of withdrawal were observed

SMILES: O=C1CC2(CCCC2)CC(=O)N1CCCCN1CCN(c2ncccn2)CC1 [buspirone]
efficacy against CMS-induced anhedonia when doses increased above threshold active ones (Male Wistar rats [1]): not more effective

SMILES: COc1cccc(C2(CCCN(C)C)C(=O)NC(=O)CC2(C)C)c1 (stereo not shown) [AGN 2979 hydrochloride, 3(3-methoxyphenyl)-3-(3-dimethylaminopropyl)-4,4-dimethylpiperidine-2,6-dione]
anxiolytic properties at FDA permitted dose (human patients; 1 mg b.i.d. (about 30 μg/kg/day), clinical study by Cutler et al): only marginally effective anxiolytic properties
treatment of anxiety and depression (human patients): effective in alleviating depression
treatment of anxiety and depression (human patients; listed as hydrochloride salt of AGN 2979): effective
adverse effects following discontinuation of chronic administration (human patients; previous clinical observations): does not cause any adverse effects following discontinuation
post-mortem examination finding ([5]; 200 mg/kg/day p.o., rats, 1 year, not detected by routine transaminase determinations): hepatocyte changes
weight loss ([5]; 200 mg/kg/day p.o., rats, over the 1-year period): 40%
weight of test rats compared with control rats ([5]; 200 mg/kg, previous experiments): continuing weight disparity (loss)
